Structures are written as SMILES.

One test deals with Bacillus cereus. Nature of the test: Agar well diffusion, zone of inhibition. As to conditions: 37 °C, 24 h; for Zone of Inhibition: 100 µg/mL. Type of test: cell-based. As for the experimental part:
(§1) Antibacterial potential of isolated compound was investigated against both Gram-positive and Gram-negative bacterial strains; Escherichia coli, Bacillus cereus, Salmonella typhi, Klebsiella pneumonia, Pseudomonas aeruginosa and Proteus mirabilis. Bacterial strains were provided by the Department of Pharmacy, University of Malakand, Khyber Pakhtunkhwa, Pakistan, and were kept at 4 °C in agar slants in freeze-dried condition until further use.
(§2) Both Gram-positive and Gram-negative bacterial strains Escherichia coli, Bacillus cereus, Salmonella typhi, Klebsiella pneumonia, Pseudomonas aeruginosa and Proteus mirabilis organism viable count per mL in the stock suspension was determined using surface viable counting technique. About 10^8–10^9 colony-forming units (CFU) per mL were used as inoculum in subsequent experiments. A fresh stock suspension was used each time.
(§3) The antibacterial activity of the isolated compounds (morin, phloroglucinol, and 1-hexyl benzene) was determined using agar well diffusion method. Muller–Hinton agar media was prepared and autoclaved at 15 lbs pressure for 20 min and cooled to 45 °C. The standard bacterial stock suspension 10^8–10^9 CFU/mL were spread on Muller–Hinton agar plates and five wells (3 mm in diameter; four on side and one in center) were punched in plates using a sterile cork borer. The entire wells were filled with 100 µL of the isolated compounds (stock solution: 1 mg/mL) using microtiter-pipette and allowed to diffuse at room temperature for 2 h. The plates were incubated at 37 °C for 24 h. In the center hole, Imipenem was added which served as positive control. Simultaneous, addition of an equal concentration of DMSO solvent instead of isolated compounds was used as blank. After incubation, the zones of inhibition were measured in millimeters (mm) and mean values were calculated. The experiments were performed in triplicates.

A further test deals with Klebsiella pneumonia. In words: Agar well diffusion, zone of inhibition. Type of test: cell-based. The conditions noted are these: 37 °C, 24 h; for Zone of Inhibition: 100 µg/mL; for zone of inhibition at 100 µg/mL: Klebsiella pneumoniae. As for the experimental part:
as §1, §2, §3
(In general: In agar diffusion tests the substance spreads into inoculated agar from a disc or well.)

A further test has as its system Pseudomonas aeruginosa. In words: Agar well diffusion, zone of inhibition. Type of test: cell-based. The conditions noted are these: 37 °C, 24 h; for Zone of Inhibition: 100 µg/mL. How it is done: as §1, §2, §3
In a further test the test system is Proteus mirabilis. Nature of the test: Agar well diffusion, zone of inhibition. The conditions noted are these: 37 °C, 24 h; for Zone of Inhibition: 100 µg/mL. The test is classed as cell-based. As for the experimental part: as §1, §2, §3
For a further test, the system named is Escherichia coli. Nature of the test: Agar well diffusion, zone of inhibition. Type of test: cell-based. As to conditions: 37 °C, 24 h; for Zone of Inhibition: 100 µg/mL. How it is done:
as §1, §2, §3

Test [1] has as its target Type-I α-glucosidase (Baker Yeast) (Saccharomyces cerevisiae, UniProt P53341). In words: In vitro α-glucosidase inhibition assay (PNPG). Type of test: biochemical. The conditions noted are these: read-out: % α-Glucosidase Inhibition Mean ± SEM. An excerpt:
Chemicals such as Tween-80 (Scharlau-chem., Barcelona, Spain), normal saline solution (Utsoka Pharma, Las Bela Baluchistan, Pakistan), lipid profile tests kits (Human, Hamburg, Germany), renal profile tests kits, and antioxidant enzymes kits (Biomed: Germany; diagnostic) were used in in vivo study. Mueller Hinton (MH) agar and broth (Merck, Modderfontein, South Africa) were used to culture the bacterial strains. Various solvents such as methanol, n-hexane, ethyl acetate, and chloroform (Merck, Darmstadt, Germany) were also used in this study.
The α-glucosidase inhibition potential of morin was determined according to the reported method with minor changes. The reaction mixture was prepared by taking 100 μL α-glucosidase (0.5 unit/mL), 600 μL phosphate buffer (0.1 M; pH 6.9), and 50 μL of isolated compounds (morin, phloroglucinol, and 1-hexyl benzene) with serial dilutions of 31.05, 62.5, 125, 250, 500 and 1000 µg/mL. All the reaction mixtures were incubated at 37 °C for 15 min. The enzymatic reactions were started by adding 100 μL substrate (p-nitro-phenyl-α-D-glucopyranoside) solution (5 mM) formed in phosphate buffer (0.1 M; pH 6.9), finally incubated at 37 °C for 15 min. The reaction was completed by adding sodium carbonate (400 μL; 0.2 M) solution and then at 405 nm absorbance was measured. The blank solution was prepared containing only isolated compounds without α-glucosidase. Percent α-glucosidase inhibition potential was calculated using Equation (3): (3) % α − glucosidase Inhibition =control absorbance−sample absorbance/control absorbance×100
All the in vitro and in vivo experiments were analyzed in three replicates and determined as mean ± SEM. Student’s t-test and one way ANOVA followed by Dunnett’s post hoc multiple comparison test was used. p ≤ 0.05 were considered as significant. Linear regression analysis was used to calculate the IC50 value for % DPPH, ABTS, α-amylase, and α-glucosidase inhibition against the different concentrations of the test samples by means of Excel program 2007.

Chain of Type-I α-glucosidase (Baker Yeast) (P53341 whole entry): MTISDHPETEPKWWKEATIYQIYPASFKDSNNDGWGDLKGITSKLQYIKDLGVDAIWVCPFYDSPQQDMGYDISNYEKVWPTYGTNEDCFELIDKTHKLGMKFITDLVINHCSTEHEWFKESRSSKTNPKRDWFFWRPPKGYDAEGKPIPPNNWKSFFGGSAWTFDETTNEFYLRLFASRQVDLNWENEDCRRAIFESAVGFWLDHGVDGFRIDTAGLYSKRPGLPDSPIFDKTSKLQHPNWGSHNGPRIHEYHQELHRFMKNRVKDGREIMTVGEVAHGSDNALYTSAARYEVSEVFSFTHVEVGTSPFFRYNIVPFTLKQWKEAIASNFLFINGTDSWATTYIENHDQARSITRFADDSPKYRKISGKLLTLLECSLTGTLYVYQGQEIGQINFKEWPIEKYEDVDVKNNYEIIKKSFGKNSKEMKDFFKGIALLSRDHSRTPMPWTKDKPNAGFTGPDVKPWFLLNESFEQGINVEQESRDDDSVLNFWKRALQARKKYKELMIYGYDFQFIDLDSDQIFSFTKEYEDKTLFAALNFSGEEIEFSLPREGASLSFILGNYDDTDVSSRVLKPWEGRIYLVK

One may read the zone of inhibition as the extent of the growth-free halo in a diffusion test. Lower therefore signals a weaker effect on the plate. A word on the inhibition: it is the percentage by which the read-out fell short of the control. Turning to `CCCCCCc1ccccc1` [1-Hexyl benzene, 1-hexylbenzene], in the test on Bacillus cereus, the “Zone of Inhibition” value came to 8.5 ± 0.1 mm and the zone of inhibition at 100 µg/mL worked out at 8.5 ± 0.1 mm. In the test on Klebsiella pneumonia, the “Zone of Inhibition” value was 6.3 ± 0.5 mm and the zone of inhibition at 100 µg/mL came out at 6.3 ± 0.5 mm. For the same molecule, in the test on Pseudomonas aeruginosa, the “Zone of Inhibition” value was 5.5 ± 0.5 mm and the zone of inhibition at 100 µg/mL is 5.5 ± 0.5 mm. Also, in the test on Proteus mirabilis, the “Zone of Inhibition” value came out at 4.5 ± 1.5 mm and the zone of inhibition at 100 µg/mL is 4.5 ± 1.5 mm. Besides, in the test with Escherichia coli, the “Zone of Inhibition” value amounted to 9.3 ± 1.1 mm and the zone of inhibition at 100 µg/mL was 9.3 ± 1.1 mm. Moreover, in test [1], the inhibition at 31.05 µg/mL amounted to 28 ± 1.2%, the inhibition at 62.5 µg/mL was 32 ± 0.4%, the inhibition at 125 µg/mL stood at 39 ± 1.1% and the inhibition at 250 µg/mL was 45 ± 0.5%. Besides, in test [1], the inhibition at 500 µg/mL was found to be 50 ± 1.2% and the inhibition at 1000 µg/mL came out at 58 ± 2.1%.
`O=c1c(O)c(-c2ccc(O)cc2O)oc2cc(O)cc(O)c12` [Morin, 2-(2,4-Dihydroxyphenyl)-3,5,7-trihydroxychromen-4-one]: in the test on Bacillus cereus, the “Zone of Inhibition” value is 17 ± 0.1 mm and the zone of inhibition at 100 µg/mL worked out at 17 ± 0.1 mm. In the test on Klebsiella pneumonia, the “Zone of Inhibition” value is given as 15 ± 0.5 mm and the zone of inhibition at 100 µg/mL came to 15 ± 0.5 mm. In the test on Pseudomonas aeruginosa, the “Zone of Inhibition” value amounted to 14 ± 0.5 mm and the zone of inhibition at 100 µg/mL worked out at 14 ± 0.5 mm. For the same molecule, in the test with Proteus mirabilis, the “Zone of Inhibition” value stood at 11 ± 1.5 mm and the zone of inhibition at 100 µg/mL is 11 ± 1.5 mm. Besides, in the test with Escherichia coli, the “Zone of Inhibition” value was 19 ± 1.1 mm and the zone of inhibition at 100 µg/mL stood at 19 ± 1.1 mm. Further, in test [1], the inhibition at 31.05 µg/mL came out at 42 ± 1.4%, the inhibition at 62.5 µg/mL came out at 48 ± 0.3%, the inhibition at 125 µg/mL came to 52 ± 0.5% and the inhibition at 250 µg/mL was found to be 59 ± 1.4%. In test [1], the inhibition at 500 µg/mL was found to be 66 ± 0.4% and the inhibition at 1000 µg/mL stood at 79 ± 1%.
For the molecule `Oc1cc(O)cc(O)c1` [Phloroglucinol, Benzene-1,3,5-triol], in the test on Bacillus cereus, the “Zone of Inhibition” value was found to be 13 ± 1.2 mm and the zone of inhibition at 100 µg/mL was 13 ± 1.2 mm. In addition, in the test with Klebsiella pneumonia, the “Zone of Inhibition” value is 11 ± 0.5 mm and the zone of inhibition at 100 µg/mL is 11 ± 0.5 mm. Further, in the test on Pseudomonas aeruginosa, the “Zone of Inhibition” value worked out at 10 ± 1.1 mm and the zone of inhibition at 100 µg/mL was found to be 10 ± 1.1 mm. In addition, in the test on Proteus mirabilis, the “Zone of Inhibition” value came to 7.5 ± 0.2 mm and the zone of inhibition at 100 µg/mL was 7.5 ± 0.2 mm. In the test with Escherichia coli, the “Zone of Inhibition” value is reported as 15 ± 0.3 mm and the zone of inhibition at 100 µg/mL was 15 ± 0.3 mm. In addition, in test [1], the inhibition at 31.05 µg/mL came to 27 ± 1%, the inhibition at 62.5 µg/mL amounted to 30 ± 1.4%, the inhibition at 125 µg/mL stood at 37 ± 1.5% and the inhibition at 250 µg/mL was found to be 43 ± 0.4%. Also, in test [1], the inhibition at 500 µg/mL is 48 ± 0.5% and the inhibition at 1000 µg/mL came out at 55 ± 2.1%.

The values above are taken from publication PMC8348310, “Antioxidants Isolated from Elaeagnus umbellata (Thunb.) Protect against Bacterial Infections and Diabetes in Streptozotocin-Induced Diabetic Rat Model” (Molecules, 2021).
